Tests used:
[1] = tested on: rat; experiment: Loss of righting reflex / anesthesia after intravenous injection in rats; assay type: in vivo; conditions: for onset of loss of righting reflex: two rats; for duration of anesthesia / loss of righting reflex: 10 mg/kg i.v. bolus
Experimental: For Examples 2 and 3, compounds were administered into the […] of the rat. The vehicle was 12-16% Cremophor EL dissolved in saline. The purity of each compound was approximately 96%.
Compound 1 was synthesized as described in Example 1. Approximately 15 mg/ml of the suspension were injected into the lateral tail vein of two rats (weight 300-320 g). […] The loss of righting reflex lasted for about 4 to 5 minutes. Upon awaking, the animals became active (e.g., started exploring behavior, walking, chewing, etc.).
Compound 3 (prepared as in Example 1) was formulated in Cremophor EL at a concentration of 10 mg/ml. Compound 3 was injected into the lateral tail vein of two rats at a dose of 10 mg/kg.

[2] = tested on: GABA receptors; experiment: In vitro assay of direct activation of GABA receptors; assay type: cell-based; conditions: FIG. 2
Description: FIG. 2 is a graph showing the direct activation of GABA receptors by phenolic compounds.
Propofol and analogs are known to activate GABA receptors (see, e.g., Trapani et al., J. Med. Chem. 1998, 41, 1846-1854, incorporated herein by reference). While the relationship between GABA activation and anesthetic activity is not completely clear, it is believed that the ability of a compound to directly activate GABA receptors may be related to the anesthetic, sedative, and/or anxiolytic activity of the compound. Compounds of the invention can be tested in vitro electrophysiological assays to determine the ability of the compound to activate GABA receptors.
Certain compounds were tested in an in vitro assay to determine whether the compounds were capable of direct activation of GABA receptors.

[3] = lateral tail vein injection, approximately 15 mg/ml suspension

Structure (SMILES)	response to tail pinching during loss of righting reflex [1, 3]	shaking or tremors during induction or recovery [1, 3]	onset of loss of righting reflex ([1]; lateral tail vein injection, approximately 15 mg/ml suspension, Cremophor EL/saline vehicle)	direct activation of GABA receptors [2]	duration of anesthesia / loss of righting reflex [1]	potency relative to propofol ([1]; 10 mg/kg, inferred from duration of loss of righting reflex)	onset of loss of righting reflex ([1]; lateral tail vein injection, 10 mg/kg, 10 mg/ml in Cremophor EL)
CC(C)c1cccc(CC(F)(F)F)c1O [Compound 1, 2-isopropyl-6-(2,2,2-trifluoroethyl) phenol]	did not respond to tail pinching	did not exhibit shaking or tremors	immediately lost their righting reflex	found to have activity	–	–	–
CC(C)c1cccc(C(C)C(F)(F)F)c1O (stereo not shown) [Compound 3, 2-isopropyl-6-(1-trifluoromethyl)ethyl phenol]	–	–	–	found to have activity	approximately 10 min	more potent than propofol	immediately lost their righting reflex
CC(C)c1cc(C(O)C(F)(F)F)cc(C(C)C)c1O (stereo not shown) [MB003, 2,6-Diisopropyl-4-(2,2,2-trifluoro-1-hydroxy-ethyl)-phenol]	–	–	–	found to have activity	–	–	–
CC(C)c1cccc(C(C)C)c1O [Propofol, 2,6-diisopropylphenol, reference compound]	–	–	–	–	7.5 min	–	–

— patent publication US7705191B2, “Hydrofluoroalkyl phenols having anesthetic properties” (University of Iowa Research Foundation, priority 2006, dated 2010)
